# Where two headings read alike, the source gives them in different places. Bridge positions count the residues as written; N and C are the ends. Square brackets hold non-standard residues; d marks the D form. Ends that are not written are not given here. * marks the point of attachment. pNA = O=[N+]([O-])c1ccc(N*)cc1; pGlu = O=C1CC[C@@H](C(=O)O)N1
# Legend:
# [1] = ref Diapharma Group (supplier named); enzyme not given; cited from earlier work
# Source text: Human Activated Protein C (APC-1.0) was purchased from Enzyme Research Laboratories, Inc., South Bend, IN, USA. […] Activated Partial Thromboplastin Time (APTT) Test Kit (TC0306) was bought from Senkey Biotechnology Co., Ltd., Kunming, China. Prothrombin Time (PT) Test Kit (GMS10176) was purchased from GENMED Scientifics Inc., Shanghai, China. Streptavidin (SA) Biosensors (18-5019) were obtained from Sartorius AG, Göttingen, Lower Sa ...
# [2] = venom of Eresus niger; cited from earlier work
# Source text: Studies have focused on the use of venom peptides for anticoagulation therapy. […] These peptides typically target key components of the coagulation cascade with high specificity, potency, and selectivity.
# mouse tail bleeding = test: Tail bleeding time; format: in vivo, C57BL/6J mice; details: heparin sodium 1000 U/kg i.v., 10 min after administration; n = 6; vehicle 89.8 s
# Experimental: The C57BL/6J mice (male, 6–8 weeks old) were purchased from Beijing Vital River Laboratory Animal Technology Co., Ltd. (Beijing, China). All animal studies were performed under the approval of the Ethics Committee of the Laboratory Animal Welfare of the Kunming Institute of Zoology, Chinese Academy of Sciences (IACUC-RE-2025-03-010).
# The mouse tail-bleeding assay was performed to evaluate the bleeding risk associated with GC38 treatment. Male C57BL/6J mice (6–8 weeks, n = 6 per group) were randomized to receive intravenous injection of PBS (negative control), GC38 (2 or 4 mg/kg in PBS), or heparin sodium (1000 U/kg, positive control). The assay was conducted 10 min after administration. Mice were anesthetized, and a 2 mm segment of the tail tip was surgically transected using a sterile scalpel. Immediately after the incision, the tail was immersed in prewarmed PBS (37 °C) to facilitate blood flow. Bleeding time was recorded from the moment of the incision until the complete cessation of bleeding (no blood flow for 60 s).
# [3] = cited from earlier work
# Source text: (§1) Anticoagulants are standard therapy for venous thromboembolism and arterial thrombosis-mediated disorders, particularly in acute settings.
# thrombin = details: cited from earlier work
# Source text: as §1
# [4] = molecular target: Human Activated Protein C (human) (UniProt P04070)
molecule,measurement,setting,value
"[pGlu]-Pro-Arg-pNA [S-2366, Chromogenix substrate S-2366]",Km,[1],200 µM
same,kcat,[1],190 s⁻¹
phospholipase A2,anticoagulant activity,[2],anticoagulant activity
heparin sodium [reference compound],tail bleeding time,mouse tail bleeding,127.6 s
"bivalirudin: Another synthetic peptide, bivalirudin",major bleeding events,"[3]; percutaneous coronary intervention (PCI), compared to heparin",reduction in major bleeding events compared to heparin
hirudin,thrombin inhibition,thrombin,thrombin inhibitor
same,bleeding risk,[3]; heparin-induced thrombocytopenia (HIT) management,lower bleeding risk than conventional therapies
heparin,bleeding risk,[3]; clinical,significant bleeding risks
"GCSGKGARCAPSKCCSGLSCGRHGGNMYKSCEWNWKTG (disulfide 14-31, 2-15, 9-20) [GC38]","APC enzymatic activity at Vmax on chromogenic substrate S-2366 (APC 0.7145 μM, S-2366 402.1 μM), GC38 0.1 to 10 μM, concentration-dependent; highest value at 10 μM",[4],171%

# From article PMC12564639, “Discovery of a Novel Anticoagulant Cystine Knot Peptide from Spider Venom Gland Transcriptome” (International Journal of Molecular Sciences, 2025)
